{
  "source": "patent US20120083486A1",
  "about": "“KIT, COMPOSITION, PRODUCT OR MEDICAMENT FOR TREATING COGNITIVE IMPAIRMENT” (ZENYAKU KOGYO KABUSHIKIKAISHA, priority 2008, published 2012)",
  "key": {"[1]": {"system": "extracellular levels of acetylcholine (ACh) in a rat hippocampus", "assay": "extracellular levels of acetylcholine (ACh) in rat hippocampus (microdialysis, HPLC-ECD)", "format": "in vivo", "conditions": "alone, compared with 1% CMC group", "procedure": "Food and water were provided ad libitum. All animal care and treatment was conducted in accordance with the Guidelines for the Care and Use of Laboratory Animals, established at the Central Research Laboratory, Zenyaku Kogyo Co., Ltd."}, "[2]": {"system": "scopolamine-induced cognitive impairment", "assay": "passive avoidance task, scopolamine-induced cognitive impairment in mice", "format": "in vivo", "conditions": "alone, compared with 1% CMC and scopolamine group", "procedure": "Eight to nine week old male ICR strain mice (Charles River Laboratories Japan, Inc.) were used in the experiment. They were housed in a cage in groups of 3 or 4 mice, in a room maintained at around 22 degree C. under 12 hour light/dark cycles. Food and water were provided ad libitum. All animal care and treatment was conducted in accordance with the Guidelines for the Care and Use of Laboratory Animals, established at the Central Research Laboratory, Zenyaku Kogyo Co., Ltd.\nCompound 1 and donepezil were suspended in 1% carboxymethyl cellulose (CMC). […] For the coadministration studies of Compound 1 and donepezil, both drug suspensions were mixed together and this mixed suspension was […]. All drugs were prepared immediately before use and orally administered at a dosage of 10 ml/kg.\nThe passive avoidance apparatus (Neuroscience Inc.) consisted of an illuminated chamber and a larger dark chamber. Two chambers were separated by a guillotine door. Oral administration of compound 1 at doses of 0.0001 mg/kg or 0.001 mg/kg and/or donepezil at doses of 0.01 and 0.1 mg/kg was given 60 min before the acquisition trial. […] The matched control group only received the vehicle. During the acquisition trial, each mouse was placed in the illuminated chamber. Immediately after the entry into the dark chamber, the door was closed and an inescapable scrambled electric shock (100 V, 0.4 mA, 1.5 sec) was delivered through the floor grid. Twenty-four hours later, each mouse was placed in the illuminated chamber for retention trial. The interval between placement in the illuminated chamber and entry into the dark chamber was measured as step through latency (maximum 300 seconds).\nA P level of <0.05 was considered indicative of statistical significance for the tests."}},
  "data": [
    {"smiles": "O=C1N=C2C=CC=CN2C12Cc1ccccc1C2", "note": "[compound 1, spiro[imidazo[1,2-a]pyridin-2(3H)-one-3,2′-indan]]", "values": [
      {"measurement": "extracellular level of ACh in the hippocampus", "setting": "[1]; compound 1 0.001 mg/kg oral", "result": "did not significantly increase"},
      {"measurement": "step-through latency in retention trial", "setting": "[2]; compound 1 0.0001 mg/kg oral", "result": "did not significantly prolong the step-through latency"},
      {"measurement": "step-through latency in retention trial", "setting": "[2]; compound 1 0.001 mg/kg oral, P<0.05", "result": "prolonged the step-through latency"}
    ]},
    {"smiles": "COc1cc2c(cc1OC)C(=O)C(CC1CCN(Cc3ccccc3)CC1)C2", "note": "(stereo not drawn) [donepezil]", "values": [
      {"measurement": "extracellular level of ACh in the hippocampus", "setting": "[1]; donepezil 1 mg/kg oral", "result": "did not significantly increase"},
      {"measurement": "step-through latency in retention trial", "setting": "[2]; donepezil 0.01 mg/kg oral", "result": "did not significantly prolong the step-through latency"},
      {"measurement": "step-through latency in retention trial", "setting": "[2]; donepezil 0.1 mg/kg oral, P<0.05", "result": "prolonged the step-through latency"}
    ]}
  ]
}
